Active and inactive are the calls of the source. No cut-off for these calls is given here.
How the values were obtained:
Vasopressin V1a receptor = Vasopressin V1a receptor (Homo sapiens, UniProt P37288); test: Inhibition of Vasopressin V1A at 10.0 µM in the Eurofins-Panlabs selectivity screen
[1] = biological target: Serine/threonine-protein kinase B-raf (Homo sapiens) (UniProt P15056); test: Inhibition of B-Raf(h) at 10.0 µM in the Eurofins Kinase panel; conditions: Compound concentration 10.0 uM
[2] = biological target: Calcium/calmodulin-dependent protein kinase type IV (Homo sapiens) (UniProt Q16566); test: Inhibition of CaMKIV(h) at 10.0 µM in the Eurofins Kinase panel; conditions: Compound concentration 10.0 uM
[3] = biological target: Calcium/calmodulin-dependent protein kinase kinase 1 (Homo sapiens) (UniProt Q8N5S9); test: Inhibition of CaMKK1(h) at 10.0 µM in the Eurofins Kinase panel; conditions: Compound concentration 10.0 uM
[4] = biological target: Cyclin-dependent kinase 1/cyclin B1 (Homo sapiens) (UniProt P06493+P14635); test: Inhibition of CDK1/cyclinB(h) at 10.0 µM in the Eurofins Kinase panel; format: protein-complex assay; conditions: Compound concentration 10.0 uM
[5] = biological target: Mitogen-activated protein kinase kinase kinase 8 (Homo sapiens) (UniProt P41279); test: Inhibition of COT(h) at 10.0 µM in the Eurofins Kinase panel; conditions: Compound concentration 10.0 uM
[6] = biological target: RAF proto-oncogene serine/threonine-protein kinase (Homo sapiens) (UniProt P04049); test: Inhibition of c-RAF(h) at 10.0 µM in the Eurofins Kinase panel; conditions: Compound concentration 10.0 uM
[7] = biological target: Death-associated protein kinase 1 (Homo sapiens) (UniProt P53355); test: Inhibition of DAPK1(h) at 10.0 µM in the Eurofins Kinase panel; conditions: Compound concentration 10.0 uM
Death-associated protein kinase 1 (Homo sapiens), sequence (P53355 whole entry, looked up): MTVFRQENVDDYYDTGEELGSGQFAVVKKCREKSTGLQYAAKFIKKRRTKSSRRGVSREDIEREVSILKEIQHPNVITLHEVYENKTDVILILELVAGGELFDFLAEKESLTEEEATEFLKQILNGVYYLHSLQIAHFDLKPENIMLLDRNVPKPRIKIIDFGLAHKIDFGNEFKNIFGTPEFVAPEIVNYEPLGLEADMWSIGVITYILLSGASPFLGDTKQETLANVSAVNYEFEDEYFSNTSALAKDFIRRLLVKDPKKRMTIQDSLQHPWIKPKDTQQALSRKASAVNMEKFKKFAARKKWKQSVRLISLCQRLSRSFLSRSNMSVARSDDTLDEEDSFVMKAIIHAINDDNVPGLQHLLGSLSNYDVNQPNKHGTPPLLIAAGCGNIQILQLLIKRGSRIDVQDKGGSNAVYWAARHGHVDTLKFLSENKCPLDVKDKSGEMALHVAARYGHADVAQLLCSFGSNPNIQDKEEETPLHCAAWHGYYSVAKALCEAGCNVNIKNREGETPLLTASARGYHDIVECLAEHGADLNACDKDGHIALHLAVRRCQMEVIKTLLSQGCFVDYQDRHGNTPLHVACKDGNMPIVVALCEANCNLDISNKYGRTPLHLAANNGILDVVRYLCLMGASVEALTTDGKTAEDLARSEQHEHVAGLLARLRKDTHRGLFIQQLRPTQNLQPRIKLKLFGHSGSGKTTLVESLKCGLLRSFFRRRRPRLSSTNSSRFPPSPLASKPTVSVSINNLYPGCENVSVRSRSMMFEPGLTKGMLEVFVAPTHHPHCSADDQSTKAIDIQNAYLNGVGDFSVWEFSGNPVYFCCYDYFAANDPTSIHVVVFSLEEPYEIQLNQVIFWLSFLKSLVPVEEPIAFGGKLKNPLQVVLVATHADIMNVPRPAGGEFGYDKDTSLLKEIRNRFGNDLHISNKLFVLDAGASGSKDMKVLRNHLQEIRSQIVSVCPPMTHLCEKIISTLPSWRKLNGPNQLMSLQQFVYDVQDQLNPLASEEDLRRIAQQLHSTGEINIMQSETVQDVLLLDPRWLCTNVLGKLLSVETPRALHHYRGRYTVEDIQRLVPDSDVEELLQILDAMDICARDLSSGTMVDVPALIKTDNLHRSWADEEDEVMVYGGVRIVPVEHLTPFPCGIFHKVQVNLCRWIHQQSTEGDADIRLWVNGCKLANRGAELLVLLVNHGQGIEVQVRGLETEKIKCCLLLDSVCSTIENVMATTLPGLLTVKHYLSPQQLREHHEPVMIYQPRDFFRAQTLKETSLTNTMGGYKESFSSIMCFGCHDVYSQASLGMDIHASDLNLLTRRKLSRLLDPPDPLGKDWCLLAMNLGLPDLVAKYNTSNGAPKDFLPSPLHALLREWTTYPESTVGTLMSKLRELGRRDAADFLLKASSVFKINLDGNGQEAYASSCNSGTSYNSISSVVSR

[8] = biological target: Death-associated protein kinase 2 (Homo sapiens) (UniProt Q9UIK4); test: Inhibition of DAPK2(h) at 10.0 µM in the Eurofins Kinase panel; conditions: Compound concentration 10.0 uM
Death-associated protein kinase 2 (Homo sapiens), sequence (Q9UIK4 whole entry, looked up): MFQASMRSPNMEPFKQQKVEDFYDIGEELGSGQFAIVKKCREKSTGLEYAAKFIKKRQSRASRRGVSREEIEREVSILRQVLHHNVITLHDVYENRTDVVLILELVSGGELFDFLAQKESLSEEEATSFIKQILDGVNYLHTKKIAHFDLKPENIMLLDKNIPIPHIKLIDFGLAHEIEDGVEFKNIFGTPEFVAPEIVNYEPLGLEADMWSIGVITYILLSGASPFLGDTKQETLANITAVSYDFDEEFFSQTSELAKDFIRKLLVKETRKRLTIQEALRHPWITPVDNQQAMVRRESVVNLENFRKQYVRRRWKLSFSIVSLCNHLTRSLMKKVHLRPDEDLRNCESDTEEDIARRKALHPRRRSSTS

[9] = biological target: Dual specificity tyrosine-phosphorylation-regulated kinase 2 (Homo sapiens) (UniProt Q92630); test: Inhibition of DYRK2(h) at 10.0 µM in the Eurofins Kinase panel; conditions: Compound concentration 10.0 uM
[10] = biological target: Eukaryotic elongation factor 2 kinase (Homo sapiens) (UniProt O00418); test: Inhibition of eEF-2K(h) at 10.0 µM in the Eurofins Kinase panel; conditions: Compound concentration 10.0 uM
[11] = biological target: Ephrin type-A receptor 3 (Homo sapiens) (UniProt P29320); test: Inhibition of EphA3(h) at 10.0 µM in the Eurofins Kinase panel; conditions: Compound concentration 10.0 uM
[12] = biological target: Receptor-type tyrosine-protein kinase FLT3 (Homo sapiens) (UniProt P36888); test: Inhibition of Flt3(h) at 10.0 µM in the Eurofins Kinase panel; conditions: Compound concentration 10.0 uM
Receptor-type tyrosine-protein kinase FLT3 (Homo sapiens), sequence (P36888 whole entry): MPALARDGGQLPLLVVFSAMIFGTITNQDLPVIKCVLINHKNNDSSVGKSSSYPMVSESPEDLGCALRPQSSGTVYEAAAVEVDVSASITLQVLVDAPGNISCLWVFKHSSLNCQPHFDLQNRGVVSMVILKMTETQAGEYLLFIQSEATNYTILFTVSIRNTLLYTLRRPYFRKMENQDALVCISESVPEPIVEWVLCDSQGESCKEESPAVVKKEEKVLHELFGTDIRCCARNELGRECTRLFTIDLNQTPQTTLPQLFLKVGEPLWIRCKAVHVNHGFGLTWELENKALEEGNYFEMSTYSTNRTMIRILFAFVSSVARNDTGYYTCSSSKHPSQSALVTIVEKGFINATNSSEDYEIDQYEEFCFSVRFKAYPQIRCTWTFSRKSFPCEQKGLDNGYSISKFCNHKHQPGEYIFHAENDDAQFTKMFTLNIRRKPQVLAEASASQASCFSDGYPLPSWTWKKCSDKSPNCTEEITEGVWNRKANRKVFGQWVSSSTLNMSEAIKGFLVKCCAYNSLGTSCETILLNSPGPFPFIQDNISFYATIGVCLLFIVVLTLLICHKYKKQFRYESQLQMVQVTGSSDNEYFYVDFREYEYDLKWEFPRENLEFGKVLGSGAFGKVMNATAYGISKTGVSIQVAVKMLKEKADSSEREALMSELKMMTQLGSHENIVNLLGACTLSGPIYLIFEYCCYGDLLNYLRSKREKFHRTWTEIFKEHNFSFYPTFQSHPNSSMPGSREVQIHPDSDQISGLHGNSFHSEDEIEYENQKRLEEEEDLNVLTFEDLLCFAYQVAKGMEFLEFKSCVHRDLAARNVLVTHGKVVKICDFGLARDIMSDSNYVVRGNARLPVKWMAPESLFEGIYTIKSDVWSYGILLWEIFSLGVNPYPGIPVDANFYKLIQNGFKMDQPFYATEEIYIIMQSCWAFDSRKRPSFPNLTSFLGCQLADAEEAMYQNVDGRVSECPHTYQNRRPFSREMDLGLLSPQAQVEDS

[13] = biological target: G protein-coupled receptor kinase 5 (Homo sapiens) (UniProt P34947); test: Inhibition of GRK5(h) at 10.0 µM in the Eurofins Kinase panel; conditions: Compound concentration 10.0 uM
[14] = biological target: Insulin receptor-related protein (Homo sapiens) (UniProt P14616); test: Inhibition of IRR(h) at 10.0 µM in the Eurofins Kinase panel; conditions: Compound concentration 10.0 uM
[15] = biological target: Tyrosine-protein kinase JAK3 (Homo sapiens) (UniProt P52333); test: Inhibition of JAK3(h) at 10.0 µM in the Eurofins Kinase panel; conditions: Compound concentration 10.0 uM
[16] = biological target: Mitogen-activated protein kinase 8 (Homo sapiens) (UniProt P45983); test: Inhibition of JNK1alpha1(h) at 10.0 µM in the Eurofins Kinase panel; conditions: Compound concentration 10.0 uM
[17] = biological target: Serine/threonine-protein kinase MAK (Homo sapiens) (UniProt P20794); test: Inhibition of MAK(h) at 10.0 µM in the Eurofins Kinase panel; conditions: Compound concentration 10.0 uM
[18] = biological target: Mitogen-activated protein kinase kinase kinase 3 (Homo sapiens) (UniProt Q99759); test: Inhibition of MEKK3(h) at 10.0 µM in the Eurofins Kinase panel; conditions: Compound concentration 10.0 uM
[19] = biological target: Misshapen-like kinase 1 (Homo sapiens) (UniProt Q8N4C8); test: Inhibition of MINK(h) at 10.0 µM in the Eurofins Kinase panel; conditions: Compound concentration 10.0 uM
[20] = biological target: Serine/threonine-protein kinase PAK 2 (Homo sapiens) (UniProt Q13177); test: Inhibition of PAK2(h) at 10.0 µM in the Eurofins Kinase panel; conditions: Compound concentration 10.0 uM
[21] = biological target: Protein kinase C eta type (Homo sapiens) (UniProt P24723); test: Inhibition of PKCeta(h) at 10.0 µM in the Eurofins Kinase panel; conditions: Compound concentration 10.0 uM
[22] = biological target: Serine/threonine-protein kinase N2 (Homo sapiens) (UniProt Q16513); test: Inhibition of PRK2(h) at 10.0 µM in the Eurofins Kinase panel; conditions: Compound concentration 10.0 uM
[23] = biological target: Serine/threonine-protein kinase VRK1 (Homo sapiens) (UniProt Q99986); test: Inhibition of VRK1(h) at 10.0 µM in the Eurofins Kinase panel; conditions: Compound concentration 10.0 uM
[24] = biological target: PI3-kinase p110-alpha/p85-alpha (Homo sapiens) (UniProt P27986+P42336); test: Inhibition of PI3 Kinase (p110a/p85a)(h) at 10.0 µM in the Eurofins Kinase panel; format: protein-complex assay; conditions: Compound concentration 10.0 uM
[25] = biological target: D(3) dopamine receptor (Homo sapiens) (UniProt P35462); conditions: Compound concentration 10.0 uM
D(3) dopamine receptor (Homo sapiens), sequence (P35462 whole entry): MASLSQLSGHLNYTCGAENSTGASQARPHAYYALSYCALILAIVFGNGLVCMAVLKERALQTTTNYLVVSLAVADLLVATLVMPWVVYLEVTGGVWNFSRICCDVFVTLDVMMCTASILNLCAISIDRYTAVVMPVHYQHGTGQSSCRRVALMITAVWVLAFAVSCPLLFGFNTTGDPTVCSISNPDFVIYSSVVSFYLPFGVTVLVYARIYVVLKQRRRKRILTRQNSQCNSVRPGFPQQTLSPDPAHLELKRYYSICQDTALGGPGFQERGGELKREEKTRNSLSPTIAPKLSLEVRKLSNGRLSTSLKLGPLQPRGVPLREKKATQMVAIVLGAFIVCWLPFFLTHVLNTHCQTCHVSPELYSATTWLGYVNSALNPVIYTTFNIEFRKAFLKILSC

[26] = biological target: D(1B) dopamine receptor (Homo sapiens) (UniProt P21918); conditions: Compound concentration 10.0 uM
D(1B) dopamine receptor (Homo sapiens), sequence (P21918 whole entry): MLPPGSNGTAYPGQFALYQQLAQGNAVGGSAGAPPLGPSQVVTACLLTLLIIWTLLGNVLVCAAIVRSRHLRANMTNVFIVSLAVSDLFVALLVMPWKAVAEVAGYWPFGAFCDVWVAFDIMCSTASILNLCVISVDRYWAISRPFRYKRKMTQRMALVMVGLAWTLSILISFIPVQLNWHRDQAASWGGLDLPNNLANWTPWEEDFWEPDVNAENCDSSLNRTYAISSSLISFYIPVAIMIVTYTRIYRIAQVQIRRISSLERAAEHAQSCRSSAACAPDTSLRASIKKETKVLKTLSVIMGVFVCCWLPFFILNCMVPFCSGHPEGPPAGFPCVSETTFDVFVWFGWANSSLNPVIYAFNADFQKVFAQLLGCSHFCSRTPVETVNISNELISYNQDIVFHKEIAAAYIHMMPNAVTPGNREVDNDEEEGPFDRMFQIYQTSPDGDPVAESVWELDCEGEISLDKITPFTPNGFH

[27] = biological target: Delta-type opioid receptor (Homo sapiens) (UniProt P41143); conditions: Compound concentration 10.0 uM
Delta-type opioid receptor (Homo sapiens), sequence (P41143 whole entry): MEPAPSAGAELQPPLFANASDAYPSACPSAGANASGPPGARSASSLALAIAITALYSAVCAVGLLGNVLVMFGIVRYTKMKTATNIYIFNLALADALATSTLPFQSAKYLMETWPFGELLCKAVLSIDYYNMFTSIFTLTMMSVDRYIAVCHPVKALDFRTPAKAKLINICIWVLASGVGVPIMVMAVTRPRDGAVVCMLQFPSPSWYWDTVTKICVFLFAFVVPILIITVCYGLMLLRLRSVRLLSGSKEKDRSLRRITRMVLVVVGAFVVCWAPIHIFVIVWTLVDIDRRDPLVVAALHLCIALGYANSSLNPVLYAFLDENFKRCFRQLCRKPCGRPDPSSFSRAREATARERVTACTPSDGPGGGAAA

[28] = biological target: Muscarinic acetylcholine receptor M3 (Homo sapiens) (UniProt P20309); conditions: Compound concentration 10.0 uM
Muscarinic acetylcholine receptor M3 (Homo sapiens), sequence (P20309 whole entry, looked up): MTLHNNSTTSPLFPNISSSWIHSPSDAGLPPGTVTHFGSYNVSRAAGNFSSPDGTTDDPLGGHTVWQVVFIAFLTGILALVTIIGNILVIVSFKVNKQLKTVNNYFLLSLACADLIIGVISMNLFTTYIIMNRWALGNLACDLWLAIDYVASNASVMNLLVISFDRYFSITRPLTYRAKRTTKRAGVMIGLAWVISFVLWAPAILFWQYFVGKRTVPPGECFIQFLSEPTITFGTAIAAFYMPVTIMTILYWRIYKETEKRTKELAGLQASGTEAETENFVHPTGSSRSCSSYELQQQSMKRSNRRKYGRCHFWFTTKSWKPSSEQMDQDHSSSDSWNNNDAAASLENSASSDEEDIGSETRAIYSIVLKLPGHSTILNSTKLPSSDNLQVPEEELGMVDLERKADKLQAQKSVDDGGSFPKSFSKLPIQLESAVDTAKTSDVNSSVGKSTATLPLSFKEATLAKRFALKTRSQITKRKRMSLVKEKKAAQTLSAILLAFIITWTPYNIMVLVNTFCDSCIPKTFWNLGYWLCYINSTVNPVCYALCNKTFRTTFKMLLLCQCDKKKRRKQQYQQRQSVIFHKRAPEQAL

[29] = biological target: Beta-3 adrenergic receptor (Homo sapiens) (UniProt P13945); conditions: Compound concentration 10.0 uM
Beta-3 adrenergic receptor (Homo sapiens), sequence (P13945 whole entry, looked up): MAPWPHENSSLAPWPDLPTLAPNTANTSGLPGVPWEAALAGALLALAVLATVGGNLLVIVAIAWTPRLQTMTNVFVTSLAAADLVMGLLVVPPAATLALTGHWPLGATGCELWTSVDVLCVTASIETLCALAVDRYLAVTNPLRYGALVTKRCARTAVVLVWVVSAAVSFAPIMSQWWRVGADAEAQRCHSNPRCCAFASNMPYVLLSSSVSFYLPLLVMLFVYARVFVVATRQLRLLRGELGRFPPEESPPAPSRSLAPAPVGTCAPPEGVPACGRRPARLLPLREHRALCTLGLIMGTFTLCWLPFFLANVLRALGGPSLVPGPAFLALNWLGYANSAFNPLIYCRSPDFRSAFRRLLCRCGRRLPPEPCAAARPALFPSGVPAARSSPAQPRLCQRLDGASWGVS

[30] = biological target: Glutamate NMDA receptor (Rattus norvegicus) (UniProt P35439+Q00959+Q00960+Q00961+Q62645+Q8VHN2+Q9R1M7); conditions: Compound concentration 10.0 uM
[31] = biological target: T1, Muscarinic acetylcholine receptor M1 (Homo sapiens) (UniProt P11229); conditions: Compound concentration 10.0 uM
T1 sequence (whole entry): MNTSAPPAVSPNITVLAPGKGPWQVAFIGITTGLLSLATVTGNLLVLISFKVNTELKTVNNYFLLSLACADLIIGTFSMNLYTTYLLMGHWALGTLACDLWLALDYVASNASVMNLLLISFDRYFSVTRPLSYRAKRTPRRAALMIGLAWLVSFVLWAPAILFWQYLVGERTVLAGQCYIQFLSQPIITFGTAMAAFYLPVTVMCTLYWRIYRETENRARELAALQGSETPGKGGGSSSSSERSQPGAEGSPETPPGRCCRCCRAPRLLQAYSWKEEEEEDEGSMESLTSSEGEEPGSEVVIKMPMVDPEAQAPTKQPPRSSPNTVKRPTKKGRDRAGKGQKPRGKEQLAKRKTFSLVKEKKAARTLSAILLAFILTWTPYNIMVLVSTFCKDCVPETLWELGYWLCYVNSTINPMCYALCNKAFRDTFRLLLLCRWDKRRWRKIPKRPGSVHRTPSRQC

Rattus norvegicus = species: Rattus norvegicus; conditions: Compound concentration 10.0 uM
[32] = biological target: Androgen receptor (Homo sapiens) (UniProt P10275); conditions: Compound concentration 10.0 uM

Row | SMILES | Ki (Vasopressin V1a receptor) | inhibition [1] | inhibition [2] | inhibition [3] | inhibition [4] | inhibition [5] | inhibition [6] | inhibition [7] | inhibition [8] | inhibition [9] | inhibition [10] | inhibition [11] | inhibition [12] | inhibition [13] | inhibition [14] | inhibition [15] | inhibition [16] | inhibition [17] | inhibition [18] | inhibition [19] | further results
1 | O=c1n(Cc2cncn2-c2cccc(Cl)c2)nc(-c2ccc(Cl)cc2)n1C[C@H](O)C(F)(F)F | > 10 µM (not active) | -2.97% | 8.3% | 1.19% | -8.48% | -1.4% | -1.49% | -5.66% | 11.7% | -8.9% | -4.87% | 1.3% | -4.56% | -0.58% | -9.92% | 2.81% | -1.22% | 3.99% | 7.5% | 5.6% | inhibition [20]: 1.99%; inhibition [21]: 10.8%; inhibition [22]: 27.4%; inhibition [23]: 15.7%; inhibition [24]: -1.29%; inhibition [25]: 18.3%; inhibition [26]: 19.6%; inhibition [27]: 12.4%; inhibition [28]: -4.25%; inhibition [29]: -0.32%; inhibition [30]: -8%; inhibition [31]: 1%; inhibition (Rattus norvegicus): 9%; inhibition [32]: 9%
2 | C[C@H](O)c1nc(Cn2nc(-c3ccc(Cl)cc3)n(C[C@H](O)C(F)(F)F)c2=O)nn1-c1cccc(Cl)c1 [PECAVAPTAN] | 0.0005 µM (active) | -4.03% | 10.3% | -5.02% | -5.4% | -0.64% | -1.46% | -1.83% | -2.55% | -0.76% | -9.42% | -7.49% | 0.7% | 2.6% | 0.47% | -1.87% | -3.82% | 5.13% | 2.27% | 5.2% | inhibition [20]: 3.11%; inhibition [21]: 4.39%; inhibition [22]: 7.5%; inhibition [23]: 12.3%; inhibition [24]: -2.88%; inhibition [25]: 19.7%; inhibition [26]: 1.94%; inhibition [27]: 15.4%; inhibition [28]: 28.2%; inhibition [29]: -1.97%; inhibition [30]: 2%; inhibition [31]: -5%; inhibition (Rattus norvegicus): 8%; inhibition [32]: 12%
